From patent publication US11260049B2, “TRPV4 antagonists” (GlaxoSmithKline Intellectual Property (No. 2) Limited, priority 2016, dated 2022)

These compounds were tested against human TRPV4 (Homo sapiens (Human), UniProt Q9HBA0) (assay: FLIPR assay for hTRPV4 expressed in BHK cells). Conditions: inhibition of Agonist Compound (EC80)-induced calcium signal; BHK/AC9 cells expressing human TRPV4; read-out: IC50.
Format: cell-based
How it was run: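 BHK/AC9 cells transduced with BacMam human TRPV4 (MOI 78), 15,000 cells/well, cultured 24 h at 37 °C. Loaded with 2 μM Fluo-4 AM and 500 μM Brilliant Black in HBSS for 1–1.5 h at room temperature in the dark. Intracellular calcium influx monitored by fluorescence.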

human TRPV4, sequence (Q9HBA0 whole entry): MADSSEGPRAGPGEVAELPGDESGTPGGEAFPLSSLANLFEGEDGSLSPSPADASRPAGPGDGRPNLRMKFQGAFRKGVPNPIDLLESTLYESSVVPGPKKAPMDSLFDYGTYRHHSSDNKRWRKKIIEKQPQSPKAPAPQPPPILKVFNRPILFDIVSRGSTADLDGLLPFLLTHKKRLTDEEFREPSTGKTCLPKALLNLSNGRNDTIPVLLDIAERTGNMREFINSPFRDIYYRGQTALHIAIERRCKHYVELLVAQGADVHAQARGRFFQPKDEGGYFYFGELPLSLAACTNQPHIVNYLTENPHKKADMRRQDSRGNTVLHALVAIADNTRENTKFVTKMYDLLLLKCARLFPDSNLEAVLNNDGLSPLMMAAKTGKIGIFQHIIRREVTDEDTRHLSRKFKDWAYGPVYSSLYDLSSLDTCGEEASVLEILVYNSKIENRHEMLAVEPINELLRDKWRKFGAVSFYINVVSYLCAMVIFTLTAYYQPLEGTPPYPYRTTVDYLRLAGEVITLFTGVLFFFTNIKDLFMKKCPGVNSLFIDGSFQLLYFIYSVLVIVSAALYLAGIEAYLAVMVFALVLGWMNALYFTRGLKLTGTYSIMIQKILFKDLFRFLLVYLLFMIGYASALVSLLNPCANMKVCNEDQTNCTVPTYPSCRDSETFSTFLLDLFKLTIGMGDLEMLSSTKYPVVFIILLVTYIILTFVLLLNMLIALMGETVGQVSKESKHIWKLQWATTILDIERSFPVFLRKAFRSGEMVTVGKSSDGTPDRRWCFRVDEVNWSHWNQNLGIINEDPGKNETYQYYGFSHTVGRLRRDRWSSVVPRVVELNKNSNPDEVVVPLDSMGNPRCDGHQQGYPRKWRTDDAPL

SMILES | IC50
N#Cc1ccc(S(=O)(=O)[C@H]2CN(S(=O)(=O)c3ccc(Cl)cc3Cl)C[C@@]2(O)CO)c(F)c1 [Example 86, 4-(((3S,4R)-1-((2,4-dichlorophenyl)sulfonyl)-4-hydroxy-4-(hydroxymethyl)pyrrolidin-3-yl)sulfonyl)-3-fluorobenzonitrile] | 0.01 to 0.1 µM
N#Cc1c(F)cc(S(=O)(=O)[C@H]2CN(S(=O)(=O)c3ccc(Cl)cc3Cl)C[C@@]2(O)CO)cc1F [Example 87, 4-(((3S,4R)-1-((2,4-dichlorophenyl)sulfonyl)-4-hydroxy-4-(hydroxymethyl)pyrrolidin-3-yl)sulfonyl)-2,6-difluorobenzonitrile] | 0.0001 to 0.01 µM
O=S(=O)(c1ccc(Cl)c(F)c1)[C@H]1CN(S(=O)(=O)c2ccc(Cl)cc2Cl)C[C@@]1(O)CO [Example 88, (3R,4S)-4-((4-chloro-3-fluorophenyl)sulfonyl)-1-((2,4-dichlorophenyl)sulfonyl)-3-(hydroxymethyl)pyrrolidin-3-ol] | 0.0001 to 0.01 µM
N#Cc1ccc(S(=O)(=O)[C@H]2CN(S(=O)(=O)c3ccc(C(F)(F)F)cc3Cl)C[C@@]2(O)CO)cc1 [Example 89, 4-(((3S,4R)-1-((2-chloro-4-(trifluoromethyl)phenyl)sulfonyl)-4-hydroxy-4-(hydroxymethyl)pyrrolidin-3-yl)sulfonyl)benzonitrile] | 0.01 to 0.1 µM
N#Cc1ccc(S(=O)(=O)[C@H]2CN(S(=O)(=O)c3ccc(C(F)(F)F)cc3Cl)C[C@]2(O)CO)cc1 [Example 90, 4-(((3S,4S)-1-((2-chloro-4-(trifluoromethyl)phenyl)sulfonyl)-4-hydroxy-4-(hydroxymethyl)pyrrolidin-3-yl)sulfonyl)benzonitrile] | 0.01 to 0.1 µM
N#Cc1c(F)cc(S(=O)(=O)[C@H]2CN(S(=O)(=O)c3ccc(C(F)(F)F)cc3Cl)C[C@@]2(O)CO)cc1F [Example 91, 4-(((3S,4R)-1-((2-chloro-4-(trifluoromethyl)phenyl)sulfonyl)-4-hydroxy-4-(hydroxymethyl)pyrrolidin-3-yl)sulfonyl)-2,6-difluorobenzonitrile] | 0.01 to 0.1 µM
N#Cc1ccc(S(=O)(=O)[C@H]2CN(S(=O)(=O)c3ccc(C(F)(F)F)cc3Cl)C[C@@]2(O)CO)cn1 [Example 92, 5-(((3S,4R)-1-((2-chloro-4-(trifluoromethyl)phenyl)sulfonyl)-4-hydroxy-4-(hydroxymethyl)pyrrolidin-3-yl)sulfonyl)picolinonitrile] | 0.01 to 0.1 µM
N#Cc1cc(C(F)(F)F)ccc1S(=O)(=O)N1C[C@H](S(=O)(=O)c2ccc(F)c(F)c2)[C@](O)(CO)C1 [Example 93, 2-(((3R,4S)-4-((3,4-difluorophenyl)sulfonyl)-3-hydroxy-3-(hydroxymethyl)pyrrolidin-1-yl)sulfonyl)-5-(trifluoromethyl)benzonitrile] | 0.01 to 0.1 µM
N#Cc1cc(C(F)(F)F)ccc1S(=O)(=O)N1C[C@H](S(=O)(=O)c2cc(F)c(F)c(F)c2)[C@](O)(CO)C1 [Example 94, 2-(((3R,4S)-3-hydroxy-3-(hydroxymethyl)-4-((3,4,5-trifluorophenyl)sulfonyl)pyrrolidin-1-yl)sulfonyl)-5-(trifluoromethyl)benzonitrile] | 0.01 to 0.1 µM
N#Cc1cc(F)c(S(=O)(=O)[C@H]2CN(S(=O)(=O)c3ccc(Cl)cc3Cl)C[C@@]2(O)CO)cc1F [Example 95, 4-(((3S,4R)-1-((2,4-dichlorophenyl)sulfonyl)-4-hydroxy-4-(hydroxymethyl)pyrrolidin-3-yl)sulfonyl)-2,5-difluorobenzonitrile] | 0.01 to 0.1 µM
O=S(=O)(c1ccc(C(F)(F)F)cc1)[C@H]1CN(S(=O)(=O)c2ccc(C(F)(F)F)cc2Cl)C[C@@]1(O)CO [Example 96, (3R,4S)-1-((2-chloro-4-(trifluoromethyl)phenyl)sulfonyl)-3-(hydroxymethyl)-4-((4-(trifluoromethyl)phenyl)sulfonyl)pyrrolidin-3-ol] | 0.01 to 0.1 µM
O=S(=O)(c1ccc(Cl)cc1)[C@H]1CN(S(=O)(=O)c2ccc(C(F)(F)F)cc2Cl)C[C@@]1(O)CO [Example 97, (3R,4S)-1-((2-chloro-4-(trifluoromethyl)phenyl)sulfonyl)-4-((4-chlorophenyl)sulfonyl)-3-(hydroxymethyl)pyrrolidin-3-ol] | 0.01 to 0.1 µM
O=S(=O)(c1ccc(Cl)c(F)c1)[C@H]1CN(S(=O)(=O)c2ccc(C(F)(F)F)cc2Cl)C[C@@]1(O)CO [Example 98, (3R,4S)-4-((4-chloro-3-fluorophenyl)sulfonyl)-1-((2-chloro-4-(trifluoromethyl)phenyl)sulfonyl)-3-(hydroxymethyl)pyrrolidin-3-ol] | 0.01 to 0.1 µM
O=S(=O)(c1ccc(Cl)nc1)[C@H]1CN(S(=O)(=O)c2ccc(C(F)(F)F)cc2Cl)C[C@@]1(O)CO [Example 99, (3R,4S)-1-((2-chloro-4-(trifluoromethyl)phenyl)sulfonyl)-4-((6-chloropyridin-3-yl)sulfonyl)-3-(hydroxymethyl)pyrrolidin-3-ol] | 0.01 to 0.1 µM
Cc1cc(S(=O)(=O)[C@H]2CN(S(=O)(=O)c3ccc(C(F)(F)F)cc3Cl)C[C@@]2(O)CO)ccc1C#N [Example 100, 4-(((3S,4R)-1-((2-chloro-4-(trifluoromethyl)phenyl)sulfonyl)-4-hydroxy-4-(hydroxymethyl)pyrrolidin-3-yl)sulfonyl)-2-methylbenzonitrile] | 0.01 to 0.1 µM
N#Cc1ccc(S(=O)(=O)[C@H]2CN(S(=O)(=O)c3ccc(C(F)(F)F)cc3Cl)C[C@@]2(O)CO)cc1Cl [Example 101, 2-chloro-4-(((3S,4R)-1-((2-chloro-4-(trifluoromethyl)phenyl)sulfonyl)-4-hydroxy-4-(hydroxymethyl)pyrrolidin-3-yl)sulfonyl)benzonitrile] | 0.01 to 0.1 µM
O=S(=O)(c1ccc(F)cc1)[C@H]1CN(S(=O)(=O)c2ccc(Cl)cc2Cl)C[C@@]1(O)CO [Example 102, (3R,4S)-1-((2,4-dichlorophenyl)sulfonyl)-4-((4-fluorophenyl)sulfonyl)-3-(hydroxymethyl)pyrrolidin-3-ol] | 0.01 to 0.1 µM
N#Cc1cc(S(=O)(=O)[C@H]2CN(S(=O)(=O)c3ccc(Cl)cc3Cl)C[C@@]2(O)CO)ccc1Cl [Example 103, 2-chloro-5-(((3S,4R)-1-((2,4-dichlorophenyl)sulfonyl)-4-hydroxy-4-(hydroxymethyl)pyrrolidin-3-yl)sulfonyl)benzonitrile] | 0.01 to 0.1 µM
CCc1ccc(S(=O)(=O)[C@H]2CN(S(=O)(=O)c3ccc(C#N)cc3Cl)C[C@@]2(O)CO)cc1 [Example 104, 3-chloro-4-(((3R,4S)-4-((4-ethylphenyl)sulfonyl)-3-hydroxy-3-(hydroxymethyl)pyrrolidin-1-yl)sulfonyl)benzonitrile] | 0.01 to 0.1 µM
CC(C)c1ccc(S(=O)(=O)[C@H]2CN(S(=O)(=O)c3ccc(C#N)cc3Cl)C[C@@]2(O)CO)cc1 [Example 105, 3-chloro-4-(((3R,4S)-3-hydroxy-3-(hydroxymethyl)-4-((4-isopropylphenyl)sulfonyl)pyrrolidin-1-yl)sulfonyl)benzonitrile] | 0.01 to 0.1 µM
CCCc1ccc(S(=O)(=O)[C@H]2CN(S(=O)(=O)c3ccc(C#N)cc3Cl)C[C@@]2(O)CO)cc1 [Example 106, 3-chloro-4-(((3R,4S)-3-hydroxy-3-(hydroxymethyl)-4-((4-propylphenyl)sulfonyl)pyrrolidin-1-yl)sulfonyl)benzonitrile] | 0.01 to 0.1 µM
